Results from patent US9133206B2, “Benzodiazepine and pyridodiazepine derivatives” (AbbVie Inc., priority 2010, dated 2015).

Test system: SK-N-SH human neuroblastoma cells
Test: Serum Deprivation/JC-1 Mitochondrial Membrane Potential (MMP) Assay
Assay type: cell-based
Settings: for EC50: serum deprivation ~18 hours, JC-1 ratio normalized to peak value for 10 μM dimebolin, single curve fit to mean data of n=2-3; for Emax: read-out: JC-1 max %; for activation at 3 µM: single dose 3 μM, JC-1 ratio normalized to peak value for 10 μM dimebolin (n=2-4), read-out: JC-1 max % (@ 3 μM)
Summary of the method: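 SK-N-SH cells serum-deprived ~18 h with compound, then stained with JC-1 for 40 min at 37 °C; red (560/595 nm) to green (485/535 nm) ratio reports membrane potential. Response normalized to peak from 10 μM dimebolin; EC50 from fit to mean of n=2–3, or single-dose 3 μM; DMSO ≤1%.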

[1] = Homo sapiens, SK-N-SH, percent maximal intensity in JC-1 ratio normalized to peak value for 10 μM dimebolin, serum deprivation
[2] = Homo sapiens, serum deprivation

## COc1ccc(CN2Cc3ccccc3N3CCN(Cc4ccccc4)CC3C2)cc1C (centres unmarked) [Example 119, 3-benzyl-6-(4-methoxy-3-methylbenzyl)-1,2,3,4,4a,5,6,7-octahydropyrazino[1,2-a][1,4]benzodiazepine]
Homo sapiens, SK-N-SH, 18 h
  EC50: 3.95 µM
[1]
  Emax: 172%

## Cc1cc(CN2Cc3ccccc3N3CCN(Cc4ccccc4)CC3C2)oc1C (centres unmarked) [Example 120, 3-benzyl-6-[(4,5-dimethyl-2-furyl)methyl]-1,2,3,4,4a,5,6,7-octahydropyrazino[1,2-a][1,4]benzodiazepine]
[2]
  activation at 3 µM: -5%

## CCOc1ccc(CN2Cc3ccccc3N3CCN(Cc4ccccc4)CC3C2)cc1 (centres unmarked) [Example 121, 3-benzyl-6-(4-ethoxybenzyl)-1,2,3,4,4a,5,6,7-octahydropyrazino[1,2-a][1,4]benzodiazepine]
Homo sapiens, SK-N-SH, 18 h
  EC50: 4.21 µM
[1]
  Emax: 167%

## Cc1ccc(CN2Cc3ccccc3N3CCN(Cc4ccccc4)CC3C2)s1 (centres unmarked) [Example 122, 3-benzyl-6-[(5-methyl-2-thienyl)methyl]-1,2,3,4,4a,5,6,7-octahydropyrazino[1,2-a][1,4]benzodiazepine]
Homo sapiens, SK-N-SH, 18 h
  EC50: 3.4 µM
[1]
  Emax: 133%

## Brc1ccc(CN2Cc3ccccc3N3CCN(Cc4ccccc4)CC3C2)cc1 (centres unmarked) [Example 123, 3-benzyl-6-(4-bromobenzyl)-1,2,3,4,4a,5,6,7-octahydropyrazino[1,2-a][1,4]benzodiazepine]
Percent maximal intensity in JC-1 ratio normalized to peak value for 10 μM dimebolin, serum deprivation
  JC-1 max %: 186%
  EC50: 3.44 µM

## c1ccc(CN2CCN3c4ccccc4CN(Cc4ccc5ccccc5c4)CC3C2)cc1 (centres unmarked) [Example 124, 3-benzyl-6-(2-naphthylmethyl)-1,2,3,4,4a,5,6,7-octahydropyrazino[1,2-a][1,4]benzodiazepine]
Homo sapiens, SK-N-SH, 18 h
  EC50: 3.49 µM
[1]
  Emax: 193%

## c1ccc(CN2CCN3c4ccccc4CN(CC4CCCC4)CC3C2)cc1 (centres unmarked) [Example 125, 3-benzyl-6-(cyclopentylmethyl)-1,2,3,4,4a,5,6,7-octahydropyrazino[1,2-a][1,4]benzodiazepine]
Homo sapiens, SK-N-SH, 18 h
  EC50: 4.26 µM
[1]
  Emax: 98%

## c1ccc(CN2CCN3c4ccccc4CN(Cc4ccc5ccccc5n4)CC3C2)cc1 (centres unmarked) [Example 126, 3-benzyl-6-(quinolin-2-ylmethyl)-1,2,3,4,4a,5,6,7-octahydropyrazino[1,2-a][1,4]benzodiazepine]
Homo sapiens, SK-N-SH, 18 h
  EC50: 1.89 µM
[1]
  Emax: 150%

## CCc1ccc(CN2Cc3ccccc3N3CCN(Cc4ccccc4)CC3C2)o1 (centres unmarked) [Example 127, 3-benzyl-6-[(5-ethyl-2-furyl)methyl]-1,2,3,4,4a,5,6,7-octahydropyrazino[1,2-a][1,4]benzodiazepine]
[2]
  activation at 3 µM: 26%

## N#Cc1ccc(CN2Cc3ccccc3N3CCN(Cc4ccccc4)CC3C2)cc1 (centres unmarked) [Example 128, 4-[(3-benzyl-1,2,3,4,4a,5-hexahydropyrazino[1,2-a][1,4]benzodiazepin-6(7H)-yl)methyl]benzonitrile]
Homo sapiens, SK-N-SH, 18 h
  EC50: 4.25 µM
[1]
  Emax: 168%

## CCCCN1Cc2ccccc2N2CCN(Cc3ccccc3)CC2C1 (centres unmarked) [Example 129, 3-benzyl-6-butyl-1,2,3,4,4a,5,6,7-octahydropyrazino[1,2-a][1,4]benzodiazepine]
[2]
  activation at 3 µM: 40%

## Clc1ccc(CN2Cc3ccccc3N3CCN(Cc4ccccc4)CC3C2)cc1 (centres unmarked) [Example 130, 3-benzyl-6-(4-chlorobenzyl)-1,2,3,4,4a,5,6,7-octahydropyrazino[1,2-a][1,4]benzodiazepine]
Homo sapiens, SK-N-SH, 18 h
  EC50: 4 µM
[1]
  Emax: 181%

## Cc1ccccc1CN1Cc2ccccc2N2CCN(Cc3ccccc3)CC2C1 (centres unmarked) [Example 131, 3-benzyl-6-(2-methylbenzyl)-1,2,3,4,4a,5,6,7-octahydropyrazino[1,2-a][1,4]benzodiazepine]
Homo sapiens, SK-N-SH, 18 h
  EC50: 3.22 µM
[1]
  Emax: 144%

## Brc1ccccc1CN1Cc2ccccc2N2CCN(Cc3ccccc3)CC2C1 (centres unmarked) [Example 132, 3-benzyl-6-(2-bromobenzyl)-1,2,3,4,4a,5,6,7-octahydropyrazino[1,2-a][1,4]benzodiazepine]
Homo sapiens, SK-N-SH, 18 h
  EC50: 3.33 µM
[1]
  Emax: 192%

## COc1ccccc1CN1Cc2ccccc2N2CCN(Cc3ccccc3)CC2C1 (centres unmarked) [Example 133, 3-benzyl-6-(2-methoxybenzyl)-1,2,3,4,4a,5,6,7-octahydropyrazino[1,2-a][1,4]benzodiazepine]
Homo sapiens, SK-N-SH, 18 h
  EC50: 3.64 µM
[1]
  Emax: 163%

## COc1ccc(CN2Cc3ccccc3N3CCN(Cc4ccccc4)CC3C2)cc1 (centres unmarked) [Example 134, 3-benzyl-6-(4-methoxybenzyl)-1,2,3,4,4a,5,6,7-octahydropyrazino[1,2-a][1,4]benzodiazepine]
Homo sapiens, SK-N-SH, 18 h
  EC50: 3.53 µM
[1]
  Emax: 163%

## COc1cccc(CN2Cc3ccccc3N3CCN(Cc4ccccc4)CC3C2)c1 (centres unmarked) [Example 135, 3-benzyl-6-(3-methoxybenzyl)-1,2,3,4,4a,5,6,7-octahydropyrazino[1,2-a][1,4]benzodiazepine]
Homo sapiens, SK-N-SH, 18 h
  EC50: 4.19 µM
[1]
  Emax: 154%

## Brc1cccc(CN2Cc3ccccc3N3CCN(Cc4ccccc4)CC3C2)c1 (centres unmarked) [Example 136, 3-benzyl-6-(3-bromobenzyl)-1,2,3,4,4a,5,6,7-octahydropyrazino[1,2-a][1,4]benzodiazepine]
Homo sapiens, SK-N-SH, 18 h
  EC50: 2.2 µM
[1]
  Emax: 172%

## Cc1ccc(CN2Cc3ccccc3N3CCN(Cc4ccccc4)CC3C2)cc1 (centres unmarked) [Example 137, 3-benzyl-6-(4-methylbenzyl)-1,2,3,4,4a,5,6,7-octahydropyrazino[1,2-a][1,4]benzodiazepine]
Homo sapiens, SK-N-SH, 18 h
  EC50: 3.3 µM
[1]
  Emax: 143%

## c1ccc(CN2CCN3c4ccccc4CN(Cc4cccc5ccccc45)CC3C2)cc1 (centres unmarked) [Example 138, 3-benzyl-6-(1-naphthylmethyl)-1,2,3,4,4a,5,6,7-octahydropyrazino[1,2-a][1,4]benzodiazepine]
Homo sapiens, SK-N-SH, 18 h
  EC50: 1.83 µM
[1]
  Emax: 203%

## Clc1ccccc1CN1Cc2ccccc2N2CCN(Cc3ccccc3)CC2C1 (centres unmarked) [Example 139, 3-benzyl-6-(2-chlorobenzyl)-1,2,3,4,4a,5,6,7-octahydropyrazino[1,2-a][1,4]benzodiazepine]
Homo sapiens, SK-N-SH, 18 h
  EC50: 3.18 µM
[1]
  Emax: 145%

## Clc1cccc(CN2Cc3ccccc3N3CCN(Cc4ccccc4)CC3C2)c1 (centres unmarked) [Example 140, 3-benzyl-6-(3-chlorobenzyl)-1,2,3,4,4a,5,6,7-octahydropyrazino[1,2-a][1,4]benzodiazepine]
Homo sapiens, SK-N-SH, 18 h
  EC50: 3.6 µM
[1]
  Emax: 189%

## CC(C)(C)CN1Cc2ccccc2N2CCN(Cc3ccccc3)CC2C1 (centres unmarked) [Example 141, 3-benzyl-6-(2,2-dimethylpropyl)-1,2,3,4,4a,5,6,7-octahydropyrazino[1,2-a][1,4]benzodiazepine]
[2]
  activation at 3 µM: 12%

## Cc1ccsc1CN1Cc2ccccc2N2CCN(Cc3ccccc3)CC2C1 (centres unmarked) [Example 142, 3-benzyl-6-[(3-methyl-2-thienyl)methyl]-1,2,3,4,4a,5,6,7-octahydropyrazino[1,2-a][1,4]benzodiazepine]
[2]
  activation at 3 µM: 13%

## CC(C)CCN1Cc2ccccc2N2CCN(Cc3ccccc3)CC2C1 (centres unmarked) [Example 143, 3-benzyl-6-(3-methylbutyl)-1,2,3,4,4a,5,6,7-octahydropyrazino[1,2-a][1,4]benzodiazepine]
[2]
  activation at 3 µM: 30%

## c1ccc(CN2CCN3c4ccccc4CN(CC4CCCCC4)CC3C2)cc1 (centres unmarked) [Example 144, 3-benzyl-6-(cyclohexylmethyl)-1,2,3,4,4a,5,6,7-octahydropyrazino[1,2-a][1,4]benzodiazepine]
Homo sapiens, SK-N-SH, 18 h
  EC50: 3.63 µM
[1]
  Emax: 132%

## Cc1cccc(CN2Cc3ccccc3N3CCN(Cc4ccccc4)CC3C2)c1 (centres unmarked) [Example 145, 3-benzyl-6-(3-methylbenzyl),-1,2,3,4,4a,5,6,7-octahydropyrazino[1,2-a][1,4]benzodiazepine]
Homo sapiens, SK-N-SH, 18 h
  EC50: 3.14 µM
[1]
  Emax: 151%

## N#Cc1cccc(CN2Cc3ccccc3N3CCN(Cc4ccccc4)CC3C2)c1 (centres unmarked) [Example 146, 3-[(3-benzyl-1,2,3,4,4a,5-hexahydropyrazino[1,2-a][1,4]benzodiazepin-6(7H)-yl)methyl]benzonitrile]
Homo sapiens, SK-N-SH, 18 h
  EC50: 2.2 µM
[1]
  Emax: 182%

## c1ccc(CN2CCN3c4ccccc4CN(Cc4cccs4)CC3C2)cc1 (centres unmarked) [Example 147, 3-benzyl-6-(2-thienylmethyl)-1,2,3,4,4a,5,6,7-octahydropyrazino[1,2-a][1,4]benzodiazepine]
[2]
  activation at 3 µM: 1.7%

## CC(C)CN1Cc2ccccc2N2CCN(Cc3ccccc3)CC2C1 (centres unmarked) [Example 148, 3-benzyl-6-isobutyl-1,2,3,4,4a,5,6,7-octahydropyrazino[1,2-a][1,4]benzodiazepine]
[2]
  activation at 3 µM: 38%

## COCCN(C)C(=O)N1Cc2ccccc2N2CCN(Cc3ccccc3)CC2C1 (centres unmarked) [Example 149, 3-benzyl-N-(2-methoxyethyl)-N-methyl-1,2,3,4,4a,5-hexahydropyrazino[1,2-a][1,4]benzodiazepine-6(7H)-carboxamide]
[2]
  activation at 3 µM: 218%

## O=C(NCCc1cccnc1)N1Cc2ccccc2N2CCN(Cc3ccccc3)CC2C1 (centres unmarked) [Example 150, 3-benzyl-N-[2-(pyridin-3-yl)ethyl]-1,2,3,4,4a,5-hexahydropyrazino[1,2-a][1,4]benzodiazepine-6(7H)-carboxamide]
[2]
  activation at 3 µM: 212%

## O=C(NCCc1ccccn1)N1Cc2ccccc2N2CCN(Cc3ccccc3)CC2C1 (centres unmarked) [Example 151, 3-benzyl-N-[2-(pyridin-2-yl)ethyl]-1,2,3,4,4a,5-hexahydropyrazino[1,2-a][1,4]benzodiazepine-6(7H)-carboxamide]
Homo sapiens, SK-N-SH, 18 h
  EC50: 1.8 µM
[1]
  Emax: 163%

## O=C(NCCc1ccncc1)N1Cc2ccccc2N2CCN(Cc3ccccc3)CC2C1 (centres unmarked) [Example 152, 3-benzyl-N-[2-(pyridin-4-yl)ethyl]-1,2,3,4,4a,5-hexahydropyrazino[1,2-a][1,4]benzodiazepine-6(7H)-carboxamide]
Homo sapiens, SK-N-SH, 18 h
  EC50: 3.08 µM
[1]
  Emax: 239%

## N#CCCN(C(=O)N1Cc2ccccc2N2CCN(Cc3ccccc3)CC2C1)C1CC1 (centres unmarked) [Example 153, 3-benzyl-N-(2-cyanoethyl)-N-cyclopropyl-1,2,3,4,4a,5-hexahydropyrazino[1,2-a][1,4]benzodiazepine-6(7H)-carboxamide]
[2]
  activation at 3 µM: 68%
